# In US11878975B2, “Substituted indole compounds useful as TLR inhibitors” (BRISTOL-MYERS SQUIBB COMPANY, priority 2017, dated 2024):
# Legend:
# Type in all cases: cell-based
# human TLR7 = biological target: T1, human TLR7 (Homo sapiens, UniProt Q9NYK1); assay: TLR7 inhibition reporter assay (HEK-Blue cells, SEAP reporter, gardiquimod stimulation); conditions: HEK-Blue cells overexpressing human TLR7, SEAP reporter, gardiquimod 7.5 μM
# T1 construct: host or cells: HEK-Blue cells
# T1 sequence (Q9NYK1 27-1049): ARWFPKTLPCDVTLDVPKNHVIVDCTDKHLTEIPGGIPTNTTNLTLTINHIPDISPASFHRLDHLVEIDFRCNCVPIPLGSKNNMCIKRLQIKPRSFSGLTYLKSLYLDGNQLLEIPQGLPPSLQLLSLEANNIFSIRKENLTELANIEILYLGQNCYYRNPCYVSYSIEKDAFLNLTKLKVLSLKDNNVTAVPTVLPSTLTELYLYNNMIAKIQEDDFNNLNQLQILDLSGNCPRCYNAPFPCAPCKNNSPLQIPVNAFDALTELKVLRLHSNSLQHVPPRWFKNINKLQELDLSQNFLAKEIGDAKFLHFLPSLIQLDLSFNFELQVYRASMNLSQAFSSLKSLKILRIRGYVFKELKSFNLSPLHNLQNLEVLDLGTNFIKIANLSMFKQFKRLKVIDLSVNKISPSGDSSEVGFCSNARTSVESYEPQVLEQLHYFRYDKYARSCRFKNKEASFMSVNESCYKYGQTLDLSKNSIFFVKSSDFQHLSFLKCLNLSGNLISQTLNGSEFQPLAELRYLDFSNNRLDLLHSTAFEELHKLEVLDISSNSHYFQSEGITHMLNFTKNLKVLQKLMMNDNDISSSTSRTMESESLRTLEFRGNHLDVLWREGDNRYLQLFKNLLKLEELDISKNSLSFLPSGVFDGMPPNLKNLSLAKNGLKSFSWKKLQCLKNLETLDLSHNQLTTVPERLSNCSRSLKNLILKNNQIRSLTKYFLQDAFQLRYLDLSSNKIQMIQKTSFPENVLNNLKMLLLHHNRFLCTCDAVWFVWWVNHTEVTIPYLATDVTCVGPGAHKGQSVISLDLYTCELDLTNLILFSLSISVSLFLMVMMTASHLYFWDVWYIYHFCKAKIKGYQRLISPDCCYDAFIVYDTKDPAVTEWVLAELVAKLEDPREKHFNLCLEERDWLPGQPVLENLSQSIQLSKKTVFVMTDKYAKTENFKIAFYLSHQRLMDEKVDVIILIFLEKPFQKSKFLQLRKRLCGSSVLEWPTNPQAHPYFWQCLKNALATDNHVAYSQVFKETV
# How it was run: (§1)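 Percent inhibition is derived from SEAP signal, scaled between agonist-plus-DMSO wells and wells given a known inhibitor. Test compounds (0.05 nM–50 μM) are pre-incubated 30 min at room temperature before agonist addition (TLR7: 7.5 μM gardiquimod; TLR8: 15.9 μM R848; TLR9: 5 nM ODN2006) and 22 h culture at 37 °C.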
# human TLR8 = biological target: T2, human TLR8 (Homo sapiens, UniProt Q9NR97); assay: TLR8 inhibition reporter assay (HEK-Blue cells, SEAP reporter, R848 stimulation); conditions: HEK-Blue cells overexpressing human TLR8, SEAP reporter, R848 15.9 μM
# T2 construct: host or cells: HEK-Blue cells
# T2 sequence (Q9NR97 27-1041): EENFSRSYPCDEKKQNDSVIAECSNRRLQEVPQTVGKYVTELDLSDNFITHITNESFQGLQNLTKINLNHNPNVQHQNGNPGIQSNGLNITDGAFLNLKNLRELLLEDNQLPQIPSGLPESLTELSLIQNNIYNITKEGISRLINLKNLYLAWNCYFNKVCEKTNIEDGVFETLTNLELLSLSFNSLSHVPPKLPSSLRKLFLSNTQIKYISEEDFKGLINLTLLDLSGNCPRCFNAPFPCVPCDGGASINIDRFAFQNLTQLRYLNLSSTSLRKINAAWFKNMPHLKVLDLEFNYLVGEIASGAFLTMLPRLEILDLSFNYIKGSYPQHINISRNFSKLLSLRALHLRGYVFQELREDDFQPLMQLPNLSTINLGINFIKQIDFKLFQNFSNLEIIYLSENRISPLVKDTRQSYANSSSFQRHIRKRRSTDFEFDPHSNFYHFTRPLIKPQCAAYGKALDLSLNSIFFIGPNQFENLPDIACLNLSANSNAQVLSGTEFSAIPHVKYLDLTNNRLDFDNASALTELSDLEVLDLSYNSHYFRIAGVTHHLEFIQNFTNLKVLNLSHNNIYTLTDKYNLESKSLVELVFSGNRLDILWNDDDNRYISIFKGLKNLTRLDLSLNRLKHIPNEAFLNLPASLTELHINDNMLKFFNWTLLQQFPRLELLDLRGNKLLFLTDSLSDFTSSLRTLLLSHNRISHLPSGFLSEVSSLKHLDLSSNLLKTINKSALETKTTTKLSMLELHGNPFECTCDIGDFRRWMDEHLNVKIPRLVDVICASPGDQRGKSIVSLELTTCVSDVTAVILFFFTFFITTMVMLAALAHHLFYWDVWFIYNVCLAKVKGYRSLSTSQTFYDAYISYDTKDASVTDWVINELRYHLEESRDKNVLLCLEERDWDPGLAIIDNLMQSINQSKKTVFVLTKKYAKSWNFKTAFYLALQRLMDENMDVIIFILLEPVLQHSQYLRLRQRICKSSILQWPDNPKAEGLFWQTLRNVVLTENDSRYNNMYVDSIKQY
# How it was run: as §1
# human TLR9 = biological target: T3, human TLR9 (Homo sapiens, UniProt Q9NR96); assay: TLR9 inhibition reporter assay (HEK-Blue cells, SEAP reporter, ODN2006 stimulation); conditions: HEK-Blue cells overexpressing human TLR9, SEAP reporter, ODN2006 5 nM
# T3 construct: host or cells: HEK-Blue cells
# T3 sequence (Q9NR96 26-1032): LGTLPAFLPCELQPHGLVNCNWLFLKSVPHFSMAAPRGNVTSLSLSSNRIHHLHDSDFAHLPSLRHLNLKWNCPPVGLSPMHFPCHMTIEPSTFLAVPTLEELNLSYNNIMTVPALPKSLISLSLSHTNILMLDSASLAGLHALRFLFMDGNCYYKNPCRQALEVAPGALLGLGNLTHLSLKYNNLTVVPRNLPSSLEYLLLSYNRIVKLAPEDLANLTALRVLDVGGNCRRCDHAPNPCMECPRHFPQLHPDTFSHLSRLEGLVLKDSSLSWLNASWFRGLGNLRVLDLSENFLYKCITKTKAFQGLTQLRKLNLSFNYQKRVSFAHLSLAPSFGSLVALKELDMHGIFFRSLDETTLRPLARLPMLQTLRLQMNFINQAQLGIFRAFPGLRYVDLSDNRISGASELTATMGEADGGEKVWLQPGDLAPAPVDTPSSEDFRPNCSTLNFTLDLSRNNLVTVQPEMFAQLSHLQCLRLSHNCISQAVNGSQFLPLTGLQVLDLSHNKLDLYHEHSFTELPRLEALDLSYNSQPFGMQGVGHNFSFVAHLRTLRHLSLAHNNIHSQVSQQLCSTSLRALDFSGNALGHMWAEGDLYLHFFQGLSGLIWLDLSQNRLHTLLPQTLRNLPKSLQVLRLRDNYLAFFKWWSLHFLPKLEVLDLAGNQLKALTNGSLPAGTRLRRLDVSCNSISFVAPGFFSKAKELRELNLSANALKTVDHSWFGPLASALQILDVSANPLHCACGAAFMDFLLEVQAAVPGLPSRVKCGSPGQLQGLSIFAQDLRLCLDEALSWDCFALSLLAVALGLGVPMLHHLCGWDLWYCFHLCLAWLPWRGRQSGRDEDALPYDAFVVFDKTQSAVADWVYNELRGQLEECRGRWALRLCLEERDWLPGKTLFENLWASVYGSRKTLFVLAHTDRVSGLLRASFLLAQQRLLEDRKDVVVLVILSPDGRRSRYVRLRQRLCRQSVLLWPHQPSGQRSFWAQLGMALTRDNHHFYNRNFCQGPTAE
# How it was run: as §1
SMILES,IC50 (human TLR7) [nM],IC50 (human TLR8) [nM],IC50 (human TLR9) [nM]
"Cc1cc(-c2[nH]c3ccc(C4CN(C)C(C)(C)CO4)cc3c2C(C)C)cn2ncnc12 (single isomer, unassigned) [Example 375, 2-(3-isopropyl-2-(8-methyl-[1,2,4]triazolo[1,5-a]pyridin-6-yl)-1H-indol-5-yl)-4,5,5-trimethylmorpholine]",1,4.7,2060
"Cc1cc(-c2[nH]c3ccc(C4CN(C)C(C)(C)CO4)cc3c2C(C)C)cn2ncnc12 (single isomer, unassigned) [Example 376, 2-(3-isopropyl-2-(8-methyl-[1,2,4]triazolo[1,5-a]pyridin-6-yl)-1H-indol-5-yl)-4,5,5-trimethylmorpholine]",2,2.1,2670
"Cc1cc(-c2[nH]c3ccc(C4CN(CC(=O)N(C)C)C(C)(C)CO4)cc3c2C(C)C)cn2ncnc12 (single isomer, unassigned) [Example 379, 2-(2-(3-isopropyl-2-(8-methyl-[1,2,4]triazolo[1,5-a]pyridin-6-yl)-1H-indol-5-yl)-5,5-dimethylmorpholino)-N,N-dimethylacetamide]",12,70,5370
"Cc1cc(-c2[nH]c3ccc(CC4CCCN4Cc4ccccc4)cc3c2C(C)C)cn2ncnc12 (single isomer, unassigned) [Example 396, 5-[(1-benzylpyrrolidin-2-yl)methyl]-2-{8-methyl-[1,2,4]triazolo[1,5-a]pyridin-6-yl}-3-(propan-2-yl)-1H-indole]",2,2.8,2380
"Cc1cc(-c2[nH]c3ccc(CC4CCCN4Cc4ccccc4)cc3c2C(C)C)cn2ncnc12 (single isomer, unassigned) [Example 397, 5-[(1-benzylpyrrolidin-2-yl)methyl]-2-{8-methyl-[1,2,4]triazolo[1,5-a]pyridin-6-yl}-3-(propan-2-yl)-1H-indole]",3,5.4,1600
COc1cc(-c2[nH]c3ccc(C4CCC(N5CC(F)(F)C5)CC4)cc3c2C(C)C)cn2ncnc12 (stereo not drawn) [Example 18],5,38,33600
COc1cc(-c2[nH]c3ccc(C4CCC(N5CC(F)(F)C5)CC4)cc3c2C(C)C)cn2ncnc12 (stereo not drawn) [Example 19],26,218,29200
COc1cc(-c2[nH]c3ccc(C4CCC(N5CC[C@@H](N(C)C)C5)CC4)cc3c2C(C)C)cn2ncnc12 (stereo partly drawn) [Example 28],0.17,0.26,328
COc1cc(-c2[nH]c3ccc(C4CCC(N5CCC[C@H]5C(N)=O)CC4)cc3c2C(C)C)cn2ncnc12 (stereo partly drawn) [Example 29],0.26,1.9,909
COc1cc(-c2[nH]c3ccc(C4CCC(N5CC[C@@H](N(C)C)C5)CC4)cc3c2C(C)C)cn2ncnc12 (stereo partly drawn) [Example 30],3,5,824

# Second part, the molecule after the results:
IC50 (human TLR7) [nM],IC50 (human TLR8) [nM],IC50 (human TLR9) [nM],SMILES
1,14,597,Cc1cc(-c2[nH]c3ccc(C4CCC(N)CC4)cc3c2C(C)C)cc(C)n1 (stereo not drawn) [Example 5]
0.17,0.47,1260,COc1cc(-c2[nH]c3ccc(C4CCC(NC5CC5)CC4)cc3c2C(C)C)cn2ncnc12 (stereo not drawn) [Example 10]
2,3.7,2070,COc1cc(-c2[nH]c3ccc(C4CCC(NC5CC5)CC4)cc3c2C(C)C)cn2ncnc12 (stereo not drawn) [Example 11]
0.7,1.6,2130,COc1cc(-c2[nH]c3ccc(C4CCC(N(C)C5CC5)CC4)cc3c2C(C)C)cn2ncnc12 (stereo not drawn) [Example 12]
1,4.8,2810,COc1cc(-c2[nH]c3ccc(C4CCC(N(C)C5CC5)CC4)cc3c2C(C)C)cn2ncnc12 (stereo not drawn) [Example 13]
5,3.5,4080,Cc1c(-c2[nH]c3ccc(C4CCC(NC5CC5)CC4)cc3c2C(C)C)cn2ncnc2c1C (stereo not drawn) [Example 14]
0.73,0.7,3530,Cc1c(-c2[nH]c3ccc(C4CCC(NC5CC5)CC4)cc3c2C(C)C)cn2ncnc2c1C (stereo not drawn) [Example 17]
0.41,1.2,2380,COc1cc(-c2[nH]c3ccc(C4CCC(N5CC(F)C5)CC4)cc3c2C(C)C)cn2ncnc12 (stereo not drawn) [Example 21]
2,9.2,2840,COc1cc(-c2[nH]c3ccc(C4CCC(N5CC(F)C5)CC4)cc3c2C(C)C)cn2ncnc12 (stereo not drawn) [Example 23]
7,21,24900,Cc1c(-c2[nH]c3ccc(C4CCC(N5CC(F)(F)C5)CC4)cc3c2C(C)C)cn2ncnc2c1C (stereo not drawn) [Example 24]
49,180,> 50000,Cc1c(-c2[nH]c3ccc(C4CCC(N5CC(F)(F)C5)CC4)cc3c2C(C)C)cn2ncnc2c1C (stereo not drawn) [Example 25]
